From US12336981B2, “Compounds and compositions for the inhibition of NAMPT” (Valo Health, Inc., priority 2010, dated 2025)
Where two headings read alike, the source gives them in different places.

Experiments:
NAMPT = target: T1, NAMPT (Homo sapiens, UniProt P43490); test: Biochemical inhibition assay: NAMPT enzymatic reaction, NMN quantified by mass spectrometry; conditions: read-out: Biochem IC50
T1 construct: His tag; host or cells: E. coli
Summary of the method: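 Inhibition of E. coli-expressed His-tagged human NAMPT, measured as NMN formation by mass spectrometry after a 30 min room-temperature reaction containing 1 μM NAM, 100 μM PRPP and 2.5 mM ATP.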

A2780 cells = test: In-vitro cell proliferation assay (SRB), A2780 cells; type: cell-based; conditions: Homo sapiens, A2780, 72 h, A2780 cells, 72 hours, read-out: A2780 IC50
Summary of the method: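 SRB read-out: 6% TCA fix 1 h at 4° C., stain, Tris solubilize, A570. Media-only background subtracted; % inhibition from two compound concentrations.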

T1 sequence (P43490 whole entry): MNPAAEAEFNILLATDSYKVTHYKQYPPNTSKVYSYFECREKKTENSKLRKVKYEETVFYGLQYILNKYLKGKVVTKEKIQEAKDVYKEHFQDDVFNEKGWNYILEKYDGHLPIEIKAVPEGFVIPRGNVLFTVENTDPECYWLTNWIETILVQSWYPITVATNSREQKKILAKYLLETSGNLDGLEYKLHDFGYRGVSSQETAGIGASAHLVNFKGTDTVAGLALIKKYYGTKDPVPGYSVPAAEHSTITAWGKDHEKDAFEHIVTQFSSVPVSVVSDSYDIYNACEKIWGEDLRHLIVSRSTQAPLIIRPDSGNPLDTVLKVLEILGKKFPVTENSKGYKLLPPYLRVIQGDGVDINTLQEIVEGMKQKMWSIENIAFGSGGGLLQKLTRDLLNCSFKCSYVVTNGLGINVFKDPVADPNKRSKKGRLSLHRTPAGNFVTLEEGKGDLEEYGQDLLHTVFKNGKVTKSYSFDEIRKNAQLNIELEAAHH

| Structure (SMILES) | IC50 (NAMPT; NAMPT enzymatic reaction) [nM] | IC50 (A2780 cells; SRB) [nM] | IC50 (A2780 cells; SRB assay) [nM] | IC50 (NAMPT; NAMPT enzymatic assay) [nM] |
| --- | --- | --- | --- | --- |
| COc1ccc(C(C)=O)cc1S(=O)(=O)c1ccc(CNC(=O)c2ccc3nccn3c2)cc1 [N-({4-[(5-acetyl-2-methoxybenzene)sulfonyl]phenyl}methyl)imidazo[1,2-a]pyridine-6-carboxamide] | 37.9 | 12.7 | – | – |
| O=C(NCc1ccc(S(=O)(=O)N2CC3CCC(C2)O3)cc1)c1ccc2nccn2c1 [N-[(4-{8-oxa-3-azabicyclo[3.2.1]octane-3-sulfonyl}phenyl)methyl]imidazo[1,2-a]pyridine-6-carboxamide] | 4 | – | 3 | – |
| O=C(NCc1ccc(S(=O)(=O)c2ccccc2)cc1)c1cc(-c2ccccn2)n[nH]1 [N-{[4-(benzenesulfonyl)phenyl]methyl}-3-(pyridin-2-yl)-1H-pyrazole-5-carboxamide] | 7430 | – | 23400 | – |
| O=C(NCc1ccc(S(=O)(=O)Cc2ccccc2)cc1)c1cc2cnccc2[nH]1 [N-{[4-(phenylmethane)sulfonylphenyl]methyl}-1H-pyrrolo[3,2-c]pyridine-2-carboxamide] | 29 | – | 302 | – |
| O=C(NCc1ccc(S(=O)(=O)c2cccc(F)c2)cc1)c1cc2cnccc2[nH]1 [N-({4-[(3-fluorobenzene)sulfonyl]phenyl}methyl)-1H-pyrrolo[3,2-c]pyridine-2-carboxamide] | 9 | – | 10 | – |
| O=C(NCc1ccc(S(=O)(=O)c2cc(Cl)ccc2O)cc1)c1ccc2nccn2c1 [N-({4-[(5-chloro-2-hydroxybenzene)sulfonyl]phenyl}methyl)imidazo[1,2-a]pyridine-6-carboxamide] | 14 | 168 | – | – |
| O=C(NCc1ccc(S(=O)(=O)c2ccccc2C(F)(F)F)cc1)c1cc2cnccc2[nH]1 [N-[(4-{[2-(trifluoromethyl)benzene]sulfonyl}phenyl)methyl]-1H-pyrrolo[3,2-c]pyridine-2-carboxamide] | 22 | – | 25 | – |
| Cn1ncc2c(S(=O)(=O)c3ccc(CNC(=O)c4cc5ccncc5o4)cc3)cccc21 [N-{[4-(1-methyl-1H-indazole-4-sulfonyl)phenyl]methyl}furo[2,3-c]pyridine-2-carboxamide] | – | 3.6 | – | 9.2 |
| O=C(NCc1ccc(S(=O)(=O)c2ccc(C(F)(F)F)cc2Cl)cc1)c1cnc2nccn2c1 | – | 64.4 | – | 18.4 |
| Cc1cc(C)cc(S(=O)(=O)c2ccc(CNC(=O)c3ccc4nccn4c3)cc2)c1 [N-({4-[(3,5-dimethylbenzene)sulfonyl]phenyl}methyl)imidazo[1,2-a]pyridine-6-carboxamide] | 6.76 | 3.17 | – | – |
| Cc1ccncc1S(=O)(=O)c1ccc(CNC(=O)c2cc3cnccc3[nH]2)cc1 [N-{[4-(4-methylpyridine-3-sulfonyl)phenyl]methyl}-1H-pyrrolo[3,2-c]pyridine-2-carboxamide] | – | 25.8 | – | 260 |
| COc1c(F)cccc1S(=O)(=O)c1ccc(CNC(=O)c2cc3ccncc3o2)cc1 | 16.6 | 30.9 | – | – |
| O=C(NCc1ccc(S(=O)(=O)c2cccc3ccsc23)cc1)c1cnc2[nH]ncc2c1 [N-{[4-(1-benzothiophene-7-sulfonyl)phenyl]methyl}-1H-pyrazolo[3,4-b]pyridine-5-carboxamide] | – | 12.8 | – | 9.9 |
| CCOCc1ccc(S(=O)(=O)c2ccc(CNC(=O)c3cnc4[nH]ncc4c3)cc2)cc1 [N-[(4-{[4-(ethoxymethyl)benzene]sulfonyl}phenyl)methyl]-1H-pyrazolo[3,4-b]pyridine-5-carboxamide] | – | 12.8 | – | 26.6 |
| COc1ccc(S(=O)(=O)c2ccc(CNC(=O)c3cnc4[nH]ncc4c3)cc2)c(C)c1 [N-({4-[(4-methoxy-2-methylbenzene)sulfonyl]phenyl}methyl)-1H-pyrazolo[3,4-b]pyridine-5-carboxamide] | 29 | 55.5 | – | – |
| O=C(NCc1ccc(S(=O)(=O)c2ccccc2)cc1)c1ccc2nncn2c1 [N-{[4-(benzenesulfonyl)phenyl]methyl}-[1,2,4]triazolo[4,3-a]pyridine-6-carboxamide] | 301 | – | > 10000 | – |
| O=C(NCc1ccc(S(=O)(=O)c2cccc(-c3ccccc3)c2)cc1)c1ccc2nccn2c1 | 12.2 | 6.8 | – | – |

| Structure (SMILES) | IC50 (NAMPT; NAMPT enzymatic reaction) [nM] | IC50 (A2780 cells; SRB) [nM] | IC50 (A2780 cells; SRB assay) [nM] | IC50 (NAMPT; NAMPT enzymatic assay) [nM] |
| --- | --- | --- | --- | --- |
| COc1ccc(S(=O)(=O)c2ccc(CNC(=O)c3cc4cnccc4[nH]3)cc2)c(OC)c1 [N-({4-[(2,4-dimethoxybenzene)sulfonyl]phenyl}methyl)-1H-pyrrolo[3,2-c]pyridine-2-carboxamide] | – | 7 | – | 27 |
| Cn1ncc2c(S(=O)(=O)c3ccc(CNC(=O)c4ccc5nccn5c4)cc3)cccc21 [N-{[4-(1-methyl-1H-indazole-4-sulfonyl)phenyl]methyl}imidazo[1,2-a]pyridine-6-carboxamide] | – | 3 | – | 12.5 |
| N#Cc1ccc(S(=O)(=O)c2ccc(CNC(=O)c3ccc4nccn4c3)cc2)cc1 | 16 | 14.1 | – | – |
| COc1cc(S(=O)(=O)c2ccc(CNC(=O)c3cc4cnccc4[nH]3)cc2)ccc1Cl | 5.5 | 3.6 | – | – |
| COc1cc(F)cc(S(=O)(=O)c2ccc(CNC(=O)c3cc4ccncc4o3)cc2)c1 [N-({4-[(3-fluoro-5-methoxybenzene)sulfonyl]phenyl}methyl)furo[2,3-c]pyridine-2-carboxamide] | 17.4 | 3.3 | – | – |
| CCOc1ccccc1S(=O)(=O)c1ccc(CNC(=O)c2ccc3nccn3c2)cc1 [N-({4-[(2-ethoxybenzene)sulfonyl]phenyl}methyl)imidazo[1,2-a]pyridine-6-carboxamide] | 20.3 | 3.39 | – | – |
| O=C(NCc1ccc(S(=O)(=O)c2cc(F)cc(C(F)(F)F)c2)cc1)c1cc2cnccc2[nH]1 | – | 3.6 | – | 26.2 |
| Cc1ccccc1S(=O)(=O)c1ccc(CNC(=O)c2cc3ccncc3o2)cc1 [N-({4-[(2-methylbenzene)sulfonyl]phenyl}methyl)furo[2,3-c]pyridine-2-carboxamide] | 15.2 | 43.3 | – | – |
| COc1cccc(Cl)c1S(=O)(=O)c1ccc(CNC(=O)c2cc3ccncc3o2)cc1 | 16.7 | 21.4 | – | – |
| CCOc1ccc(S(=O)(=O)c2ccc(CNC(=O)c3cc4cnccc4[nH]3)cc2)cc1F | 20.5 | 5.4 | – | – |
| O=C(NCc1ccc(S(=O)(=O)c2ccc3ncccc3c2)cc1)c1cc2ccncc2s1 [N-{[4-(quinoline-6-sulfonyl)phenyl]methyl}thieno[2,3-c]pyridine-2-carboxamide] | 3 | – | 0.9 | – |
| O=C(NCc1ccc(S(=O)(=O)c2ccc(C(F)(F)F)c(F)c2)cc1)c1ccc2nccn2c1 | – | 4.4 | – | 40.2 |
| Cc1ccc(Cl)c(S(=O)(=O)c2ccc(CNC(=O)c3cnc4nccn4c3)cc2)c1Cl | 7.3 | 56 | – | – |
| O=C(NCc1ccc(S(=O)(=O)c2csc(-c3cccc(F)c3)n2)cc1)c1cnc2[nH]ncc2c1 [N-({4-[2-(3-fluorophenyl)-1,3-thiazole-4-sulfonyl]phenyl}methyl)-1H-pyrazolo[3,4-b]pyridine-5-carboxamide] | – | 60.9 | – | 27.1 |
| O=C(NC1CCCC1)c1cccc(S(=O)(=O)c2ccc(CNC(=O)c3cc4ccncc4s3)cc2)c1 | – | 13.8 | – | 4.8 |
| O=C(NCc1ccc(S(=O)(=O)c2cccc(N3CCCC3)c2)cc1)c1cc2cc(O)ccc2[nH]1 | 144 | 100 to 1000 | – | – |
